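Tested at 5 concentrations; 48 h exposure; 96-well plates; endpoints linearly interpolated, else capped at highest concentration. GI50: concentration for 50% inhibition of growth. The concentration for full growth arrest is given as TGI.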
Legend:
Experiment in all cases: NCI-60 cell line screen, 48 h
786-0 renal = system: 786-0 renal
A498 renal = system: A498 renal
A549 NSCLC = system: A549 NSCLC
ACHN renal = system: ACHN renal
BT-549 breast = system: BT-549 breast
CAKI-1 renal = system: CAKI-1 renal
CCRF-CEM leukemia = system: CCRF-CEM leukemia
COLO 205 colon = system: COLO 205 colon
DU-145 prostate = system: DU-145 prostate
EKVX NSCLC = system: EKVX NSCLC
HCC-2998 colon = system: HCC-2998 colon
HCT-116 colon = system: HCT-116 colon
HCT-15 colon = system: HCT-15 colon
HL-60(TB) leukemia = system: HL-60(TB) leukemia
HOP-62 NSCLC = system: HOP-62 NSCLC
HOP-92 NSCLC = system: HOP-92 NSCLC
HS 578T breast = system: HS 578T breast
HT29 colon = system: HT29 colon
IGROV1 ovarian = system: IGROV1 ovarian
K-562 leukemia = system: K-562 leukemia
KM12 colon = system: KM12 colon
LOX IMVI melanoma = system: LOX IMVI melanoma
M14 melanoma = system: M14 melanoma
MCF7 breast = system: MCF7 breast
MDA-MB-231 breast = system: MDA-MB-231 breast
MDA-MB-435 = system: MDA-MB-435
MOLT-4 leukemia = system: MOLT-4 leukemia
NCI-H226 lung = system: NCI-H226 lung
NCI-H23 lung = system: NCI-H23 lung
NCI-H460 lung = system: NCI-H460 lung
NCI-H522 lung = system: NCI-H522 lung
NCI/ADR-RES ovarian = system: NCI/ADR-RES ovarian
OVCAR-3 ovarian = system: OVCAR-3 ovarian
OVCAR-4 ovarian = system: OVCAR-4 ovarian
OVCAR-5 ovarian = system: OVCAR-5 ovarian
OVCAR-8 ovarian = system: OVCAR-8 ovarian
PC-3 prostate = system: PC-3 prostate
RPMI-8226 leukemia = system: RPMI-8226 leukemia
RXF 393 renal = system: RXF 393 renal
SF-268 CNS = system: SF-268 CNS
SF-295 CNS = system: SF-295 CNS
SF-539 CNS = system: SF-539 CNS
SK-MEL-2 melanoma = system: SK-MEL-2 melanoma
SK-MEL-28 melanoma = system: SK-MEL-28 melanoma
SK-MEL-5 melanoma = system: SK-MEL-5 melanoma
SK-OV-3 ovarian = system: SK-OV-3 ovarian
SN12C renal = system: SN12C renal
SNB-19 CNS = system: SNB-19 CNS
SNB-75 CNS = system: SNB-75 CNS
SR leukemia = system: SR leukemia
SW-620 colon = system: SW-620 colon
T-47D breast = system: T-47D breast
TK-10 renal = system: TK-10 renal
U251 CNS = system: U251 CNS
UACC-257 melanoma = system: UACC-257 melanoma
UACC-62 melanoma = system: UACC-62 melanoma
UO-31 renal = system: UO-31 renal

Cc1ccc(S(=O)(=O)Oc2ccccc2-c2ccccc2)cc1
GI50 (786-0 renal): 8.26 µM | TGI (786-0 renal): > 100 µM | GI50 (A498 renal): 1.42 µM | TGI (A498 renal): 8.94 µM | GI50 (A549 NSCLC): 4.4 µM | TGI (A549 NSCLC): > 100 µM | GI50 (ACHN renal): 6.81 µM | TGI (ACHN renal): > 100 µM | GI50 (BT-549 breast): 8.41 µM | TGI (BT-549 breast): > 100 µM | GI50 (CAKI-1 renal): 1.3 µM | TGI (CAKI-1 renal): > 25.5 µM | GI50 (CCRF-CEM leukemia): 2.48 µM | TGI (CCRF-CEM leukemia): > 100 µM | GI50 (COLO 205 colon): 2.25 µM | TGI (COLO 205 colon): 8.41 µM | GI50 (DU-145 prostate): 2.87 µM | TGI (DU-145 prostate): > 29.8 µM | GI50 (EKVX NSCLC): 3.21 µM | TGI (EKVX NSCLC): > 100 µM | GI50 (HCC-2998 colon): 3.87 µM | TGI (HCC-2998 colon): > 72.7 µM | GI50 (HCT-116 colon): 2.85 µM | TGI (HCT-116 colon): > 100 µM | GI50 (HCT-15 colon): 1.62 µM | TGI (HCT-15 colon): > 100 µM | GI50 (HL-60(TB) leukemia): 2.12 µM | TGI (HL-60(TB) leukemia): > 100 µM | GI50 (HOP-62 NSCLC): 4.24 µM | TGI (HOP-62 NSCLC): > 100 µM | GI50 (HOP-92 NSCLC): 5.73 µM | TGI (HOP-92 NSCLC): > 100 µM | GI50 (HS 578T breast): 3.09 µM | TGI (HS 578T breast): > 26.9 µM | GI50 (HT29 colon): 1.18 µM | TGI (HT29 colon): > 43.2 µM | GI50 (IGROV1 ovarian): 2.16 µM | TGI (IGROV1 ovarian): > 100 µM | GI50 (K-562 leukemia): 0.524 µM | TGI (K-562 leukemia): > 100 µM | GI50 (KM12 colon): 0.743 µM | TGI (KM12 colon): > 100 µM | GI50 (LOX IMVI melanoma): 4.22 µM | TGI (LOX IMVI melanoma): > 100 µM | GI50 (M14 melanoma): 2.05 µM | TGI (M14 melanoma): > 86.1 µM | GI50 (MCF7 breast): 2.47 µM | TGI (MCF7 breast): > 100 µM | GI50 (MDA-MB-231 breast): 3.7 µM | TGI (MDA-MB-231 breast): > 100 µM | GI50 (MDA-MB-435): 0.249 µM | TGI (MDA-MB-435): 0.834 µM | GI50 (MOLT-4 leukemia): 3.9 µM | TGI (MOLT-4 leukemia): > 100 µM | GI50 (NCI-H226 lung): 21.2 µM | TGI (NCI-H226 lung): > 100 µM | GI50 (NCI-H23 lung): 5.21 µM | TGI (NCI-H23 lung): > 100 µM | GI50 (NCI-H460 lung): 2.32 µM | TGI (NCI-H460 lung): > 100 µM | GI50 (NCI-H522 lung): 0.542 µM | TGI (NCI-H522 lung): 7.83 µM | GI50 (NCI/ADR-RES ovarian): 1.13 µM | TGI (NCI/ADR-RES ovarian): > 28.9 µM | GI50 (OVCAR-3 ovarian): 1.81 µM | TGI (OVCAR-3 ovarian): 6.94 µM | GI50 (OVCAR-4 ovarian): 7.13 µM | TGI (OVCAR-4 ovarian): > 100 µM | GI50 (OVCAR-5 ovarian): 8.26 µM | TGI (OVCAR-5 ovarian): > 100 µM | GI50 (OVCAR-8 ovarian): 4.86 µM | TGI (OVCAR-8 ovarian): > 100 µM | GI50 (PC-3 prostate): 3.52 µM | TGI (PC-3 prostate): > 100 µM | GI50 (RPMI-8226 leukemia): 3.42 µM | TGI (RPMI-8226 leukemia): > 55.6 µM | GI50 (RXF 393 renal): 2.31 µM | TGI (RXF 393 renal): > 27.7 µM | GI50 (SF-268 CNS): 5.95 µM | TGI (SF-268 CNS): > 100 µM | GI50 (SF-295 CNS): 0.702 µM | TGI (SF-295 CNS): 3.3 µM | GI50 (SF-539 CNS): 2.38 µM | TGI (SF-539 CNS): 8.1 µM | GI50 (SK-MEL-2 melanoma): 6.55 µM | TGI (SK-MEL-2 melanoma): > 26.1 µM | GI50 (SK-MEL-28 melanoma): 7.77 µM | TGI (SK-MEL-28 melanoma): > 100 µM | GI50 (SK-MEL-5 melanoma): 2.98 µM | TGI (SK-MEL-5 melanoma): > 100 µM | GI50 (SK-OV-3 ovarian): 3.24 µM | TGI (SK-OV-3 ovarian): > 45.8 µM | GI50 (SN12C renal): 6.18 µM | TGI (SN12C renal): > 100 µM | GI50 (SNB-19 CNS): 5.24 µM | TGI (SNB-19 CNS): > 100 µM | GI50 (SNB-75 CNS): 2.63 µM | TGI (SNB-75 CNS): > 29 µM | GI50 (SR leukemia): 0.465 µM | TGI (SR leukemia): > 70.7 µM | GI50 (SW-620 colon): 1.03 µM | TGI (SW-620 colon): > 100 µM | GI50 (T-47D breast): 5.14 µM | TGI (T-47D breast): > 100 µM | GI50 (TK-10 renal): 12 µM | TGI (TK-10 renal): > 100 µM | GI50 (U251 CNS): 3.81 µM | TGI (U251 CNS): > 100 µM | GI50 (UACC-257 melanoma): 4.35 µM | TGI (UACC-257 melanoma): > 100 µM | GI50 (UACC-62 melanoma): 2.3 µM | TGI (UACC-62 melanoma): > 100 µM | GI50 (UO-31 renal): 4.01 µM | TGI (UO-31 renal): > 75.7 µM
